The values below come from patent US10934277B2, “Enantiomerically purified GPER agonist for use in treating disease states and conditions” (Linnaeus Therapeutics, Inc., priority 2018, dated 2021).

SMILES strings stand for the structures. ≈ marks a conversion by molar mass, not a printed value.

Series [1] can be described thus: Kinetic solubility measurement in bio-relevant media. The class given is physicochemical. The following applies: FeSSIF.
The next series can be described thus: pKa titration test. It is filed as physicochemical. The following applies: range of 3-11.
The target of another series is T1, CYP2C8 (Homo sapiens, UniProt P10632).
T1 sequence (P10632 1-490): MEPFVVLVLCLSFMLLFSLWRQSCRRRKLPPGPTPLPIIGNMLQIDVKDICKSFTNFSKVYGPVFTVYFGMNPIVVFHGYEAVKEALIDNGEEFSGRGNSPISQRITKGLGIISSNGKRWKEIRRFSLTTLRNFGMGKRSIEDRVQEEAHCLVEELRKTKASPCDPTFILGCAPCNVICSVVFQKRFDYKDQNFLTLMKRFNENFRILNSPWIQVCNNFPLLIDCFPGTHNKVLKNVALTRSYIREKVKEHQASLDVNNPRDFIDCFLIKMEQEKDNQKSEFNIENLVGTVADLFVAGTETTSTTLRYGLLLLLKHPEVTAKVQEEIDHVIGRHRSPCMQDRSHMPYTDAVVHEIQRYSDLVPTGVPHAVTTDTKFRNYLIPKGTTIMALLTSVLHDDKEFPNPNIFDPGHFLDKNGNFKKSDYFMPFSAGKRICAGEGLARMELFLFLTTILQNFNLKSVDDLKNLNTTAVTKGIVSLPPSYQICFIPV
The series can be described thus: in vitro. It is filed as in vitro ADME. The procedure: (§1) Cytochrome P450 Inhibition (HPLC-UV/VIS and HPLC-MS/MS detection)
(§2) Peak areas corresponding to the metabolite of each substrate were recorded. The percent of control activity was then calculated by comparing the peak area obtained in the presence of the test compound to that obtained in the absence of the test compound. Subsequently, the percent inhibition was calculated by subtracting the percent control activity from 100 for each compound. IC50 values (concentration causing a half-maximal inhibition of control values) were determined by non-linear regression analysis of the concentration-response curve using Hill equation curve fitting.

Another series has as its target CYP2D6 (Homo sapiens, UniProt P10635). The series can be described thus: in vitro. It is filed as in vitro ADME. The procedure:
as §1, §2

The target in a further series is CYP2C9 (Homo sapiens, UniProt P11712). Description: in vitro. The class given is in vitro ADME. On the procedure:
as §1, §2

CYP2D6, sequence (P10635 whole entry, species assumed): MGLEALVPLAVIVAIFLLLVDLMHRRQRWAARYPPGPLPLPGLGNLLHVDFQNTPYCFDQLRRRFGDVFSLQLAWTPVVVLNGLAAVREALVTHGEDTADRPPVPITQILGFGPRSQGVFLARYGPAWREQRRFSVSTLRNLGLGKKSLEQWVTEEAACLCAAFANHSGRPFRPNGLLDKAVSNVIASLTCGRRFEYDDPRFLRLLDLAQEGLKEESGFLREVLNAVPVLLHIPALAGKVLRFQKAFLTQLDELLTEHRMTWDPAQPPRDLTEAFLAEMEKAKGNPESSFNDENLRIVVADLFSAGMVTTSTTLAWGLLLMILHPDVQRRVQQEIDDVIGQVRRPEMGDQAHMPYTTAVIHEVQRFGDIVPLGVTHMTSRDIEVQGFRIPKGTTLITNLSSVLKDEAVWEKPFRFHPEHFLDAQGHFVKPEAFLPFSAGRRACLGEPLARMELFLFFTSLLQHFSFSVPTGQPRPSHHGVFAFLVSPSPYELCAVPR
CYP2C9, sequence (P11712 whole entry, species assumed): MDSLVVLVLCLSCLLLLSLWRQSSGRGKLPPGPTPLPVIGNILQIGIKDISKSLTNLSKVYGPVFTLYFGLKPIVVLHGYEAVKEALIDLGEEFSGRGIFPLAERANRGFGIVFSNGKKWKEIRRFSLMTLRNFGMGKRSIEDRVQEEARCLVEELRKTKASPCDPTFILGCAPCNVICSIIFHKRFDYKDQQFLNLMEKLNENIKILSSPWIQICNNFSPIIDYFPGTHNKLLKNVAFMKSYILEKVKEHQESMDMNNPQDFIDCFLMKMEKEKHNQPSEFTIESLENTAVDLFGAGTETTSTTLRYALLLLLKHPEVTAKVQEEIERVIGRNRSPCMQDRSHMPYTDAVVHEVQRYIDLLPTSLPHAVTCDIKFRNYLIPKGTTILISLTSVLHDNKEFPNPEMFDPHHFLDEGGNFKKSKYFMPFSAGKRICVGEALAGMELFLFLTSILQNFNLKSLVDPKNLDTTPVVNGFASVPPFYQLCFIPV

For orientation: solubility means the concentration that dissolves in the medium under given conditions. As a reminder, the inhibition is the percentage by which the read-out fell short of the control. For the compound `CC(=O)c1ccc2c(c1)[C@@H]1C=CC[C@@H]1[C@H](c1cc3c(cc1Br)OCO3)N2` (single isomer, unassigned) [SRR G-1], in series [1] (SGF, FaSSIF, after 1, 2, 4 and 24 hrs), the “form change in the three bio-relevant media” value is “No form change was observed”. In series [1] (pH 5, thermodynamic from solid, 37° C., read-out: highest solubility, observed in FeSSIF), the solubility was approximately 37 µg/mL (≈ 89.7 µM). The pKa by titration entry in “pKa titration test” is recorded as “no pKa value was observed”. Also, the inhibition at 10 µM against CYP2C8 came to 66.7%; at CYP2D6, 74.3%.
Take `CC(=O)c1ccc2c(c1)[C@H]1C=CC[C@H]1[C@@H](c1cc3c(cc1Br)OCO3)N2` [RSS G-1, 1-((3aR,4S,9bS)-4-(6-bromobenzo[d][1,3]dioxol-5-yl)-3a,4,5,9b-tetrahydro-3H-cyclopenta[c]quinolin-8-yl)ethan-1-one]: the inhibition at 10 µM against CYP2C9 is 50.4%.
